Experiment [1] relates to potato plastidal PPX. Nature of the experiment: Tolerance to sulfentrazone of HemG mutant E. coli complemented with potato plastidal PPX (plate selection, colony count). The settings on record: wild-type potato plastidal PPX clone in hemG mutant E. coli. Type of experiment: cell-based, Solanum tuberosum. From the text:
(§1) StcPPX1, less its chloroplast transit peptide was cloned from cDNA into Cibus' proprietary functional screening vector. This vector may be used both for functional screening, and for GRON QC. The potato PPX genes were used to complement the HemG mutant strain of E. coli, which lacks a functional HemG gene, a bacterial homolog of PPX. Without a complementing gene, the media must be supplemented with hematin for E. coli growth.
(§2) In order to assess mutations that confer tolerance to PPX inhibitors such as Chateau (flumioxazin-Valent/Sumitomo), Naja (diphenylether—MAI) or Kixor (saflufenacil—BASF). Pure active ingredients for the PPX inhibiting herbicides Chateau (flumioxazin—Valent/Sumitomo), Spartan (sulfentrazone—FMC) and Kixor/Sharpen (saflufenacil—BASF) were obtained. […]
(§3) Liquid culture selection conditions were developed for both sulfentrazone and flumioxazin. […] Spectrophotometric readings (OD600) were taken for each sample (1:4 dilution) and a sample of each plated on LB-Chlor-IPTG plates to determine whether the OD600 correlated with the number of viable colonies. […]
(§4) Randomly mutagenized plasmids (5′ and 3′ ends) were transformed into XL1-Blue E. coli cells. […] Colony counts were compared between the two and mutation tolerance determined based on the percentage of colonies on the 0.75 mM sulfentrazone plates as compared with those on the 0 mM plates. […]

For experiment [2], the system named is leaf disc explants of in vitro grown potato plants. Nature of the experiment: Leaf disk kill curve (callus formation in leaf disc explants). Type of experiment: cell-based. As for the experimental part: Aimed at establish the concentration of sulfentrazone that will inhibit callus formation in leaf disc explants, leaf discs were punched with a sterile hole punch from 5 weeks old in vitro grown potato plants. The leaf discs were cultured in petri dishes containing solid Haberlach culture medium containing various concentrations of Sulfentrazone in a final concentration of 1% DMSO. Six leaf discs cultured at each herbicide concentration. Plates were sealed with micropore tape and incubated at room temperature (approximately 23° C.). In an initial experiment, 7.8 μM sulfentrazone, the lowest concentration tested in that experiment, was sufficient to stop callus formations and bleach all leaf discs within 20 days. […] Similar leaf disc kill curve experiments were performed using saflufenacil where 0.5 μM of this herbicide was sufficient to inhibit callus formation in almost all leaf discs after 20 days.

The test system of experiment [3] is potato plastidal PPX. Nature of the experiment: Tolerance to flumioxazin of HemG mutant E. coli complemented with potato plastidal PPX (liquid selection, colony count). Type of experiment: cell-based, Solanum tuberosum.
Text: as §1, §2, §3, §4

As to `Cc1nn(-c2cc(NS(C)(=O)=O)c(Cl)cc2Cl)c(=O)n1C(F)F` [sulfentrazone], in experiment [1], the “sulfentrazone concentration on which the wildtype construct did not grow” value came to 2.5 mM. Moreover, in experiment [2] (initial experiment, lowest concentration tested, 1% DMSO), the “concentration sufficient to stop callus formations and bleach all leaf discs within 20 days” value worked out at 7.8 µM. Besides, the “time after which callus initiated on the leaf veins of some leaf discs” value in experiment [2] (leaf discs grown on 2.0 μM) amounted to 13 days. For the same compound, the “concentration sufficient to inhibit callus formation in almost all leaf discs after 20 days” value in experiment [2] (solid Haberlach culture medium, 1% DMSO) amounted to 3.0 µM.
Consider `C#CCN1C(=O)COc2cc(F)c(N3C(=O)C4=C(CCCC4)C3=O)cc21` [flumioxazin], for which the “colony numbers against the WT gene with increasing flumioxazin” value in experiment [3] (0 to 10 mM in 1 mL liquid cultures) is reported as “steadily decreasing colony numbers”. Besides, the “growth of the wildtype construct at 10 mM flumioxazin” value in experiment [3] (10 mM flumioxazin, liquid selection) is recorded as “limited growth”.
